Experimental data: patent US11008577B1 (priority 2017, dated 2021)
Where a SMILES comes first, the peptide text is derived from it. Bridges are numbered along the chain shown (N, C = ends). [ ]: non-standard residue; d: D form. The star is where a group is joined. Ileψ(thiazoline)Cys = CC[C@H](C)[C@H](N)C1=N[C@H](C(=O)*)CS1; dOrn = NCCC[C@@H](N)C(=O)O

Key:
HLM04 and HLM07 = assay: Chemical sensitivity analysis, Cluster B strains; assay type: cell-based, Rhodobacter sphaeroides; conditions: 48 hours, OD 595 nm, conc. per Table 4B
Procedure: (§1) Selected compounds (Tables 4A and 4B) were tested for their effects on growth of the parent strain to determine the highest doses that cause <30% growth reduction. Parent and high-lipid mutant strains were grown in the presence of the chemicals, or DMSO as a control, in 96-well plates at 30° C. with shaking for 48 hours. Final ODs were read at 595 nm on an Infinite® F500 microplate reader (Tecan). For each strain, final ODs for each drug treatment were first divided by the OD of the DMSO control for that strain to determine relative cell growth, and then the growth value for each treated culture was normalized by the parent strain growth under the same condition.

HLM01, HLM02 and HLM05 = assay: Chemical sensitivity analysis, Cluster A strains; assay type: cell-based, Rhodobacter sphaeroides; conditions: 48 hours, OD 595 nm, conc. per Table 4B
high-lipid (HL) mutants = assay: Chemical sensitivity analysis, high-lipid mutants vs parent strain; assay type: cell-based, Rhodobacter sphaeroides; conditions: all HL mutants; 96-well plates, 30° C., 48 hours, OD 595 nm, normalized to DMSO control and parent strain; conc. per Table 4B
HLM03 = conditions: 48 hours, OD 595 nm, conc. per Table 4B
Procedure: as §1

In the case of `CO/N=C(\C(=O)N[C@@H]1C(=O)N2C(C(=O)O)=C(CSc3nc(=O)c(=O)[nH]n3C)CS[C@H]12)c1csc(N)n1` [ceftriaxone], the “sensitivity compared to the parent strain (relative growth, cluster ** in FIG. 3)” value (HLM04 and HLM07) is reported as “increased sensitivity”.

In the case of `CC[C@H]1OC(=O)[C@H](C)[C@@H](O[C@H]2C[C@@](C)(OC)[C@@H](O)[C@H](C)O2)[C@H](C)[C@@H](O[C@@H]2O[C@H](C)C[C@H](N(C)C)[C@H]2O)[C@](C)(O)C[C@@H](C)C(=O)[C@H](C)[C@@H](O)[C@]1(C)O` [erythromycin], the “sensitivity compared to the parent strain (relative growth, cluster * in FIG. 3)” value (HLM01, HLM02 and HLM05) is reported as “sensitive”.

For neomycin, the “growth of the high-lipid mutants compared to the parent strain (relative fitness)” value (high-lipid (HL) mutants) was “no growth difference”.

With `OO` [hydrogen peroxide] the “sensitivity compared to the parent strain (relative growth)” value (HLM03) was “increased sensitivity”.

With `CO[C@H]1/C=C/O[C@@]2(C)Oc3c(C)c(O)c4c(O)c(c5c(nc6cc(C)ccn65)c4c3C2=O)NC(=O)/C(C)=C\C=C\[C@H](C)[C@H](O)[C@@H](C)[C@@H](O)[C@@H](C)[C@H](OC(C)=O)[C@@H]1C` [rifaximin] the “sensitivity compared to the parent strain (relative growth, cluster * in FIG. 3)” value (HLM01, HLM02 and HLM05) was “sensitive”.

`CCCCCCCCCCCCOS(=O)(=O)[O-].[Na+]` [SDS, sodium dodecyl sulfate] was tested, and the “growth of the high-lipid mutants compared to the parent strain (relative fitness)” value (high-lipid (HL) mutants) was “many or all of the high-lipid mutants showed increased sensitivity”.

In the case of `CC[C@H](C)[C@H](N)C1=N[C@H](C(=O)N[C@@H](CC(C)C)C(=O)N[C@H](CCC(=O)O)C(=O)N[C@H](C(=O)N[C@H]2CCCCNC(=O)[C@H](CC(N)=O)NC(=O)[C@@H](CC(=O)O)NC(=O)[C@H](Cc3cnc[nH]3)NC(=O)[C@@H](Cc3ccccc3)NC(=O)[C@H]([C@@H](C)CC)NC(=O)[C@@H](CCCN)NC2=O)[C@@H](C)CC)CS1` [bacitracin] ({Ileψ(thiazoline)Cys}-L[dE]IK[dOrn]I[dF]H[dD]N; lactam 4-C), the “sensitivity compared to the parent strain (relative growth, cluster ** in FIG. 3)” value (HLM04 and HLM07) is reported as “increased sensitivity”.

For `CC[C@H]1OC(=O)[C@H](C)[C@@H](O[C@H]2C[C@@](C)(OC)[C@@H](O)[C@H](C)O2)[C@H](C)[C@@H](O[C@@H]2O[C@H](C)C[C@H](N(C)C)[C@H]2O)[C@](C)(OC)C[C@@H](C)C(=O)[C@H](C)[C@@H](O)[C@]1(C)O` [clarithromycin], the “sensitivity compared to the parent strain (relative growth, cluster * in FIG. 3)” value (HLM01, HLM02 and HLM05) was “sensitive”.
